The source of these data is patent publication US20040137023A1, “5-Cholesten-3beta, 25-diol-7-one, esters and ethers thereof, particularly for the treatment of dry skin and scalp” (L'OREAL, priority 2002, published 2004).

Molecules are shown by their SMILES.

The test system of the test is immortalized human sebocytes derived from the SZ95 line. The experiment in a line: Lipogenesis in immortalized human sebocytes in culture (Nile red fluorescence, neutral lipids). The test is classed as cell-based. Conditions: for LIPID VARIATION (relative to the control): treatment for 2 days, 0.1% DMSO, Nile red 485-540 nm. How it is done:
5-Cholesten-3β,25-diol-7-one was tested, in comparison with 7-oxocholesterol and 25-hydroxy-cholesterol, on a model of immortalized human sebocytes in culture, derived from the SZ95 line described in Zouboulis, C. C., Seltmann, H., Neitzel, H. and Orfanos, C. E., Establishment and Characterization of an Immortalized Human Sebaceous Gland Cell Line, J. Invest. Dermatol., 113, 1011-1020 (1999).
The test consisted in measuring the amount of lipids produced by the sebocytes of the line (at confluence), in the presence or absence of active agents diluted in DMSO, such that the final amount of DMSO in the culture medium is 0.1%. After treatment for 2 days, the adherent cells are treated with Nile red (1 μg/ml). The lipid content is then quantified by measuring the fluorescence of the dye (excitation/emission pair: 485-540 nm for the neutral lipids).
The tests are performed in sixplicate and the experiment is repeated four times.
In parallel, proliferation tests (MUH) and cell viability tests (LDH) make it possible to check that the effects obtained are not associated with an appreciable change in these biological parameters.

With `C[C@]12CC[C@H](O)CC1=CC[C@@H]1[C@@H]2CC[C@]2(C)C(=O)CC[C@@H]12` [DHEA], the “increase in the lipid content of the sebum” value (10^−5 M, same test) is 13%. Regarding `CC(C)CCC[C@@H](C)[C@H]1CC[C@H]2[C@@H]3C(=O)C=C4C[C@@H](O)CC[C@]4(C)[C@H]3CC[C@]12C` [7-Oxocholesterol, 7-oxocholesterol], for the setting “test compound 10^−4 M”, the “LIPID VARIATION (relative to the control)” value is “+20%”. As to `C[C@H](CCCC(C)(C)O)[C@H]1CC[C@H]2[C@@H]3CC=C4C[C@@H](O)CC[C@]4(C)[C@H]3CC[C@]12C` [25-OH cholesterol, 25-hydroxy-cholesterol], under “test compound 10^−4 M”, the “LIPID VARIATION (relative to the control)” value was found to be 0%. In the case of `C[C@H](CCCC(C)(C)O)C1CCC2C3C(=O)C=C4C[C@@H](O)CC[C@]4(C)C3CC[C@@]21C` (stereo partly drawn) [5-Cholesten-3β,25-diol-7-one], the “LIPID VARIATION (relative to the control)” value runs as follows: (test compound 10^−4 M) “+90%”; (test compound 10^−5 M) “+85%”.
